Data on 1 compound can be found in patent US20250250559A1, “METHOD TO ANALYZE AND OPTIMIZE GENE EDITING MODULES AND DELIVERY APPROACHES” (Hoffmann-La Roche Inc., priority 2016, published 2025).

Holding throughout (type): cell-based, human
Data set [1] concerns MCF-7 cells. The experiment in a line: DT resistant colony count of MCF-7 exposed to SCR7 and/or RS-1 during SpCas9-mediated DPH1 editing. As for the experimental part:
(§1) To evaluate and quantify the influence of DNA repair modulators on efficiency and specificity of gene editing, CRISPR/SpCAS9 and DPH1 targeting 20 mer gRNA was combined with compounds that modulate DNA repair mechanisms. The inhibitor Scr7 was applied either 4 hrs before transfection or 18 hrs after transfection of the gene editing modules until […] after transfection to inhibit DNA ligase IV.
SCR7 (1 μM final conc.) or RS-1 (8 μM final conc.) or SCR7+RS-1 (1 μM+8 μM final conc.) were added to MCF7 cells 4 hrs before transfection of the gene editing modules in the ‘early exposure’ setting. For ‘late exposure’ SCR7 (8 µM final conc.) or RS-1 (1 μM final conc.) were added to MCF7 cells 18 hrs after transfection. In both settings, cells were exposed to the modulators until 96 hr after transfection, i.e. ‘early exposure’ consisted of a treatment for a total of 100 hrs, ‘late exposure’ for a total of 78 hrs.
(§2) The system upon which to determine the effects of DNA repair modulators consisted of the CRISPR/SpCas9 modules with DPH1 20 mer gRNA, transfected into MCF7 cells and subjected to subsequent DT and PM selection as described in the previous Examples. Frequencies of DTr, PMr, and double-resistant colonies were recorded to reflect gene inactivation and cassette integration events.

The subject of data set [2] is MCF-7 cells. In words: PM resistant colony count of MCF-7 exposed to SCR7 and/or RS-1 during SpCas9-mediated DPH1 editing. The note with it: for mean PMr colonies #seeded cells: 80,000: SpCas9 Dph1 gRNA (20 mer). As for the experimental part:
as §1
SCR7 (1 μM final conc.) or RS-1 (8 μM final conc.) or SCR7+RS-1 (1 μM+8 μM final conc.) were added to MCF7 cells 4 hrs before transfection of the gene editing modules in the ‘early exposure’ setting. […]
as §2

Data set [3] concerns MCF-7 cells. The experiment in a line: DT resistant colony count of MCF-7 exposed to SCR7 and/or RS-1 during SpCas9-mediated DPH1 editing. The note with it: SpCas9 Dph1 gRNA (20 mer); compound added 18 hrs after transfection; RS-1 8 μM, SCR7 1 μM.
The subject of the next data set is MCF7. In words: Viability (Promega CTG) assay. The note with it: 1 μM Scr7, 8 μM RS-1, 1 μM+8 μM combined. The protocol: The RAD51-stimulatory compound 1 (RS-1) was applied to modulate homologous recombination (HR) during gene editing. RS-1 (Sigma Aldrich) was dissolved in DMSO to generate a stock solution of 10 mg/ml, which was diluted in RPMI medium just before application to cells.
The DNA ligase IV inhibitor SCR7 was applied to modulate non-homologous end joining (NHEJ) during gene editing. SCR7 (Sigma) was dissolved in DMSO to generate a stock solution of 10 mg/ml, which was diluted in RPMI medium just before application to cells.

Where [4] appears, read: compound added 4 hr before transfection.
The mark [5] stands for this setting: compound added 4 hrs before transfection.
The mark [6] stands for this setting: compound added 18 hr after transfection.

“Also recorded” adds a separate entry of the source. Marks after values point to notes of the source that are not given here.

Take `O=C(Nc1ccc(Br)cc1)c1ccc(Br)c(S(=O)(=O)NCc2ccccc2)c1` [RS-1, RAD51-stimulatory compound 1]: the “mean DTr colonies #seeded cells: 40,000” value was 201.5 in the data set on MCF-7 cells [1] (SpCas9 Dph1 gRNA (20 mer), compound added 4 hrs before transfection, RS-1 8 μM, SCR7 1 μM) and 512.5 in the data set with MCF-7 cells [3]. For the same compound, the “% DT resistant colonies relative to untreated control” value in the data set on MCF-7 cells [1] (setting [4]) and in the data set on MCF-7 cells [1] (setting [6]) was 100% throughout. For the same compound, the “gRNA specific DT-r colonies (gRNA-scRNA)” value in the data set on MCF-7 cells [1] (setting [5]) is 201.5. Also, the “Mean DT resistant colonies (4 × 40.000 seeded cells)” value in the data set with MCF-7 cells [1] (editing entity SpCas9-scRNA, compound added 4 hrs before transfection) is on record as 0. Besides, the “mean PMr colonies #seeded cells: 80,000” value is 14 with MCF-7 cells [2] (compound added 4 hrs before transfection, RS-1 8 μM, SCR7 1 μM) and 15.3 in the data set with MCF-7 cells [2] (compound added 18 hrs after transfection, RS-1 8 μM, SCR7 1 μM). Further, the “% PMr relative to DTr colonies” value in the data set with MCF-7 cells [2] (SpCas9 Dph1 gRNA, compound added 18 hrs after transfection, RS-1 8 μM, SCR7 1 μM) is listed as 3.0%. For the same compound, the “% PM resistant colonies relative to untreated control” value was determined as 165%* in the data set with MCF-7 cells [2] (setting [4]) and 76% in the data set with MCF-7 cells [2] (setting [6]). Besides, in the data set with MCF-7 cells [2] (setting [5]), the “gRNA specific PM-r colonies (gRNA-scRNA)” value is recorded as 10.2. Also, the “effect on the growth or viability of MCF7 cells at the applied dose” value in the data set with MCF7 was “no effect on the growth or viability; also recorded: does not inflict growth inhibitory or toxic effects”.
